Reference: EP3892734B1, “SCREENING METHODS AND THERAPEUTIC APPLICATIONS BASED ON BACTERIAL MOTILITY INHIBITION” (Ludwig-Maximilians-Universität München, priority 2020, dated 2021)
“Also recorded” adds a separate entry of the source.

Columns and labels:
[1] = minimal toxic dose (MTD) testing in mice; assay type: in vivo; details: oral, up to 60 mg/kg/day, listed as BL2
Procedure: (§1) The active compounds BL1 and BL2, which were chosen to be tested in a preclinical model, were initially tested for toxicity in the mouse model by […] (MTD) testing. The MTD testing (MTD Tox56000 protocol, Eurofins Panlabs) was performed according to international standards, as will be briefly outlined in the following: Three mice were dosed with the compounds at each intended dose. BL1 active compound was prepared in a suitable stock concentration in 5% DMSO, or 5% DMSO, 10% Solutol, 85% PBS (for the 40 and 60 mg/kg/day), and dosed at 10, 30, 40, or 60 mg/kg/day by intraperitoneal injection (125 µl for each dose). BL2 active compound was dosed orally, at 10 mg/kg/day, 30 mg/kg/day, or 60 mg/kg/day, diluted in 5% DMSO, 2.5% carboxy-methyl-cellulose (CMC), in PBS, also at 125 µl per dose per animal. The dosing in each case started with the lowest dose in the three animals, followed by observation for up to 72 h. Subsequently, the next higher dose was administered to a different set of three mice, etc.. Both compounds to be used subsequently for the in vivo therapeutic administration were verified to be non-toxic to mice below an administered dose of 40 mg/kg per day.

flagellin protein FlaA = assay: Western immunoblot of flagellin FlaA in bacterial fractions; assay type: cell-based, H. pylori; details: Western blot, soluble and surface-associated fractions, time point T2
Text: • Fig. 1: Developing and establishing a screening system by primary luciferase-based reporter screen for flagellar expression and biosynthesis of H. pylori in multi-well plates and identification of active small compounds by the screen. A) Results of luciferase flagellar reporter screen for one exemplary library of more than 1200 compounds; each dot represents one compound result. […] Inhibitory as well as enhancing activities of the compounds were observed. Yellow markings depict the borders of the Z-factor, corresponding to the three-fold standard error of the positive (non-inhibited) controls. […] Tracking assays with H. pylori were performed in liquid medium (RPMI1640 with 3% horse serum) and movies recorded in a CELL-R live imaging system (Olympus, see methods). A) Stops/reversals during the swimming runs of the bacteria as a measure of intact taxis and directional motility and curvilinear velocity (CLV) were quantitated as described in (Behrens et al., 2016). […] Two different time points of an H. pylori growth curve in liquid BHI medium (3% yeast extract, 5% horse serum), T1 (early exponential) T2 (late exponential growth) were monitored for differences in protein expression in the presence (+) or absence of Active 2 compound. […] Highquality sequences obtained from cagL positive PCRs in the absence of positive culture are boxed; respective Sanger sequence reads are shown in B). […]

[2] = solubility observed when preparing doses for MTD testing; assay type: physicochemical; details: dosing preparations for MTD testing
Procedure: as §1

Cn1c(CSC(=N)N)c(Cl)c(=O)n1-c1ccccc1 [Active 2]
toxicity (MTD testing) [1]: did not show any toxicity; also recorded: not toxic | amount of major flagellin FlaA (flagellin protein FlaA): significant reduction of main flagellin FlaA at time point T2 | amount of major flagellin FlaA (flagellin protein FlaA; listed as Active 2/BL2): reduced the amounts of the major flagellin, FlaA | solubility [2]: very well soluble
